The record followed here is US20170306047A1, “PHARMACEUTICAL COMPOSITION FOR CANCER PREVENTION AND TREATMENT, CONTAINING NDRG3 EXPRESSION OR ACTIVITY INHIBITOR AS ACTIVE INGREDIENT, OR NDRG3 PROTEIN-SPECIFIC ANTIBODY AND USE THEREOF” (KOREA RESEARCH INSTITUTE OF BIOSCIENCE AND BIOTECHNOLOGY, priority 2014, published 2017).

Where a SMILES comes first, the peptide text is derived from it. The star is where a group is joined. Cbz = O=C(OCc1ccccc1)*

Assay [1] deals with NDRG3 protein in MCF-7 cells. Kind of assay: NDRG3 protein expression after inhibition of glycolysis, MCF-7 cells. The assay is classed as cell-based. Particulars: varying concentration, 24 hours, hypoxic condition (1% O2). As for the experimental part:
Additionally, to check an effect of inhibition of glycolysis on expression of the NDRG3 protein, MCF-7 cells were treated with a varying concentration of 2-deoxyglucose (2-DG) inhibiting the glycolysis, statically cultured for 24 hours under a hypoxic condition (1% O2), as described in Example 5-2, and then collected and lysed, as described in Example 3. Thereafter, the MCF-7 cells were subjected to Western blotting using anti-NDRG3 and anti-β-actin antibodies (FIG. 15D).

Assay [2] concerns NDRG3 protein in HeLa cells. Description: NDRG3 protein expression after PHD2 inhibition, Western blotting, HeLa cells. In kind it is cell-based. The note with it: varying concentration, 24 hours, normoxic condition (21% O2). The procedure: (§1) Also, to determine the functional relationship between PHD2 and NDRG3, MCF-7 cells (FIG. 4B) or HeLa cells (FIG. 4C) were treated with a varying concentration of desferrioxamine (DFX), which was a PHD2 inhibitor, for 24 hours under a normoxic condition (21% O2), and then lysed, as described in Example 3. The cell lysate was subjected to Western blotting using anti-NDRG3, anti-HIF-1α, and anti-β-actin (FIGS. 4B and 4C).

The test system of assay [3] is NDRG3 protein in MCF-7 cells. Kind of assay: NDRG3 protein expression after PHD2 inhibition, Western blotting, MCF-7 cells. In kind it is cell-based. Particulars: varying concentration, 24 hours, normoxic condition (21% O2). As for the experimental part:
as §1

Assay [4] deals with NDRG3 protein in NDRG3-overexpressing HeLa cells. Kind of assay: In vivo ubiquitination assay of NDRG3 under proteasome inhibition. In kind it is cell-based. Particulars: 20 μM for 8 hours, normoxic condition. As for the experimental part: Specifically, a vector for transfection (an MSCV retroviral system) was constructed using a full-length NDRG3 cDNA (SEQ ID NO: 1) and a pMSCVneo retroviral vector (Clontech). To construct the viral vector, a GP293 cell line was transfected using lipofectamine (Invitrogen). After 48 hours, HeLa cells were treated with a cell supernatant containing NDRG3-retroviruses or control-retroviruses together with 6 μg/ml of polybrene for 24 hours. Then, the cells in which the NDRG3 was overexpressed were untreated or treated with 20 μM MG132 for 8 hours, and then collected. The collected cells were subjected to Western blotting using an anti-NDRG3 antibody and an anti-β-actin antibody (FIG. 7A).
Also, to determine ubiquitination of NDRG3 under a normoxic condition, an in vivo ubiquitination assay was performed. First, a vector for transfection was constructed using shNDRG3 (Sigma-Aldrich, SEQ ID NO: 4) and a lentiviral vector to inhibit expression of the NDRG3. To construct the viral vector, a packing cell line was transfected as described above. Thereafter, HeLa cells were treated with a cell supernatant containing the NDRG3 shRNA-expressing lentiviruses together with 6 μg/ml of polybrene, and kept in a DMEM medium supplemented with 10% FBS. […]

Assay [5] deals with T1, recombinant human NDRG3-GST (Homo sapiens, UniProt Q9UGV2).
T1 construct: made in house; host or cells: E. coli BL21 (NDRG3-GST); HEK293T immunoprecipitates (PHD2, VHL)
Kind of assay: In vitro ubiquitination assay of recombinant NDRG3 by PHD2/VHL complex. In kind it is biochemical. The note with it: L-lactate pH 7.0, 20 mM. As for the experimental part:
Further, to check an effect of lactate generation on ubiquitination of the NDRG3, an in vitro ubiquitination assay was performed. First, HEK293T cells were transfected with the Flag-tagged PHD2 and HA-tagged VHL variants, as described in Example 3, collected, and then lysed. Thereafter, the protein lysate (500 μg) was reacted with an anti-HA affinity gel (Sigma) or an anti-Flag affinity gel (Sigma) at 4° C. for a day, and centrifuged to obtain recombinant PHD2 proteins or VHL proteins. Then, the recombinant PHD2-/VHL-binding proteins were untreated or treated with L-lactate (pH 7.0, 20 mM), and then reacted at 37° C. for an hour in 50 μl of a solution including recombinant human NDRG3-GST (4 μg) prepared by the method described in Example 4-1, 500 ng of a ubiquitin-activating enzyme (E1, Upstate), 1 μg of a ubiquitin-conjugating enzyme (E2 (UbcH5a), Upstate), 2.5 μg of ubiquitin-Flag (Sigma), 20 mM HEPES (pH 7.3), 5 mM MgCl2, 1 mM DTT, and 2 mM ATP. Subsequently, the mixture was incubated with a GST-conjugated agarose resin at 4° C. for 4 hours, and the precipitate was washed, and subjected to Western blotting using an anti-Flag antibody, as described in Example 3 (FIG. 15F).

For assay [6], the target named is T2, recombinant GST-NDRG3 protein (Homo sapiens, UniProt Q9UGV2).
T2 construct: made in house; host or cells: E. coli BL21
Kind of assay: In vitro binding assay with L-[14C]-lactate, wild-type NDRG3. Particulars: 50 μg GST-NDRG3 versus GST, 30° C., one hour. As for the experimental part:
Also, to confirm interaction between L-lactate and the NDRG3 protein, an in vitro binding assay was performed. GST or the recombinant GST-NDRG3 protein (50 μg) was reacted with 0.5 μCi of unlabeled L-lactate (pH 7.0, Sigma) and L-[^14C]-lactate (PerkinElmer) at 30° C. for an hour. Thereafter, a GST-conjugated agarose resin was added thereto, and the resulting mixture was reacted for 4 hours. Then, a resin to which the NDRG3-GST protein was bound was separated from the reaction mixture, and impurities were removed using PBS. Subsequently, the NDRG3-bound agarose resin was transferred to a scintillation solution containing 2 ml of an LSC-cocktail (PerkinElmer), and ^14C values were measured, and plotted in a graph (Left panel of FIG. 16B). Also, GST, the recombinant GST-NDRG3 protein (50 μg) or the recombinant GST-NDRG3 (G138W) variant protein (50 μg) was reacted with 0.5 μCi of L-[^14C]-lactate (PerkinElmer) at 30° C. for an hour, and ^14C values were then measured in the same manner as described above, and plotted in a graph (Right panel of FIG. 16B).

The target in assay [7] is T3, recombinant GST-NDRG3 (G138W) variant protein (Homo sapiens, UniProt Q9UGV2, G138W).
T3 construct: made in house; host or cells: E. coli BL21
Description: In vitro binding assay with L-[14C]-lactate, NDRG3 (G138W) variant. Particulars: 50 μg GST-NDRG3 (G138W) versus GST-NDRG3. As for the experimental part: Specifically, to confirm interaction between L-lactate and the NDRG3 protein, a site-directed mutation was performed, as described in Example 4-3, using the pGEX-4T-2-NDRG3, which was cloned by the method disclosed in Example 4-1, as a template, and primers listed in the following Table 4, thereby obtaining a pGEX-4T-2-NDRG3 (G138W) variant construct in which glycine (G) that was an amino acid at position 138 among the L-lactate binding sites of the NDRG3 was substituted with […]. […]
Also, to confirm interaction between L-lactate and the NDRG3 protein, an in vitro binding assay was performed. […] Subsequently, the NDRG3-bound agarose resin was transferred to a scintillation solution containing 2 ml of an LSC-cocktail (PerkinElmer), and ^14C values were measured, and plotted in a graph (Left panel of FIG. 16B). Also, GST, the recombinant GST-NDRG3 protein (50 μg) or the recombinant GST-NDRG3 (G138W) variant protein (50 μg) was reacted with 0.5 μCi of L-[^14C]-lactate (PerkinElmer) at 30° C. for an hour, and ^14C values were then measured in the same manner as described above, and plotted in a graph (Right panel of FIG. 16B).

Assay [8] deals with human umbilical vein endothelial cells (HUVEC). Description: Tube forming assay, culture broth of NDRG3 (N66D) variant-overexpressing Huh-1 cells. The assay is classed as cell-based. The note with it: ectopic NDRG3 (N66D) variant overexpressed, 24 hours, hypoxic condition (1% O2). The procedure: (§2) Specifically, a tube forming assay was performed to check a change in angiogenesis activity by the NDRG3 deletion. First, the Huh-7 cells (2×10^5 cells/ml) in which the expression of the NDRG3 was inhibited using shNDRG3 according to the method described in Example 4-4, and the control Huh-7 cells were cultured for 24 hours under a hypoxic condition (1% O2), and a culture broth (1 ml) was recovered, and then cultured with human umbilical vein endothelial cells (HUVEC; 1×10^5 cells/ml) for 6 to 12 hours in a 6-well dish previously coated with Matrigel to observe formation of tubes (FIG. 13A).
(§3) Specifically, Huh-1 cells in which the NDRG3 (N66D) variant was overexpressed were prepared, and the control cells and the NDRG3 (N66D) variant-overexpressing Huh-1 cells were untreated or treated with sodium oxamate, statically cultured for 24 hours under a hypoxic condition (1% O2). Thereafter, the cells were collected, as described in Example 6-2, and then subjected to a tube forming assay (FIG. 18).

The next assay has as its system Huh-1 cells. Description: MTT assay of cell growth, Huh-1 cells. The note with it: varying concentration, light hypoxic condition (3% O2). In kind it is cell-based. As for the experimental part:
(§4) Specifically, to check the cell growth in response to the NDRG3 deletion, an MTT assay was performed. First, the NDRG3-deleted Huh-1 cells prepared by the method disclosed in Example 6-1, and the control Huh-1 cells was seeded at a density of 2,000 cells/well in a 96-well plate, and then cultured at 37° C. in a 5% CO2 incubator under a hypoxic condition (3% O2) over time. Thereafter, the cells were treated with a 1 mg/ml MTT solution diluted with PBS, and reacted for 2 hours. Then, a medium containing the MTT was removed, and the cells were treated with 100 μl of DMSO to dissolve MTT formazan crystals. Subsequently, an optical density of the cell suspension was measured at a wavelength of 570 nm using a spectrophotometer (FIG. 14A).
(§5) Specifically, to check an effect of the ectopic NDRG3 (N66D) variant on the cell growth after inhibition of the lactate generation, Huh-1 cells were transfected with an ectopic variant NDRG3 (N66D) expression vector, as described in Example 4-3. Then, the Huh-1 cells and the NDRG3 (N66D) variant-overexpressing Huh-1 cells were seeded at a density of 1,000 cells/well in a 96-well plate, treated with a varying concentration of sodium oxamate, statically cultured by time under a light hypoxic condition (3% O2). Thereafter, to check the cell growth, an MTT assay was performed, as described in Example 6-3, and plotted in a graph (FIG. 17A).

Assay [9] deals with NDRG3 protein in MCF-7 cells. Description: NDRG3 protein accumulation after inhibition of L-lactate generation, MCF-7 cells. In kind it is cell-based. Particulars: varying concentration, 24 hours, hypoxic condition (1% O2). As for the experimental part:
Also, to check an effect of inhibition of the L-lactate generation on expression of the NDRG3 protein, MCF-7 cells were treated with a varying concentration of sodium oxamate that was a lactate dehydrogenase A (LDHA) inhibitor, statically cultured for 24 hours under a hypoxic condition (1% O2), as described in Example 5-2, and then collected and lysed, as described in Example 3. Thereafter, the cell lysate was subjected to Western blotting using anti-NDRG3, anti-HIF-1α and anti-β-actin antibodies, as described above, and L-lactate generation was determined, and then plotted in a graph. The values were normalized to the L-lactate standard curve (FIG. 15B).

Assay [10] has as its system NDRG3 (N66D) variant-overexpressing Huh-1 cells. Description: MTT assay of cell growth, NDRG3 (N66D) variant-overexpressing Huh-1 cells. The assay is classed as cell-based. The note with it: ectopic NDRG3 (N66D) variant overexpressed, light hypoxic condition (3% O2). The procedure:
as §4, §5

Assay [11] has as its system human umbilical vein endothelial cells (HUVEC). Kind of assay: Tube forming assay, culture broth of Huh-1 cells. The assay is classed as cell-based. Particulars: control Huh-1 cells, 24 hours, hypoxic condition (1% O2). As for the experimental part:
as §2, §3

Assay [12] deals with NDRG3 (N66D) variant in Huh-1 cells. Description: NDRG3 variant accumulation after inhibition of lactate generation, NDRG3 (N66D)-overexpressing Huh-1 cells. The assay is classed as cell-based. Particulars: ectopic NDRG3 (N66D) variant overexpressed, 40 mM, light hypoxic condition. The procedure:
(§6) Also, to check an effect of the inhibition of the lactate generation on expression of the ectopic variant NDRG3 (N66D) protein under a sustained hypoxic condition, Huh-1 cells and the NDRG3 (N66D) variant-overexpressing Huh-1 cells were untreated or treated with 40 mM sodium oxamate, statically cultured by time under a light hypoxic condition, and then collected and lysed, as described in Example 3. Thereafter, the cell lysate was subjected to Western blotting using anti-NDRG3 and anti-β-actin antibodies (FIG. 17E).

Assay [13] has as its system NDRG3 protein in Huh-1 cells. Kind of assay: NDRG3 accumulation after inhibition of lactate generation, Western blotting, Huh-1 cells. The assay is classed as cell-based. Particulars: 40 mM, light hypoxic condition. As for the experimental part:
as §6

T3 sequence (Q9UGV2 whole entry G138W): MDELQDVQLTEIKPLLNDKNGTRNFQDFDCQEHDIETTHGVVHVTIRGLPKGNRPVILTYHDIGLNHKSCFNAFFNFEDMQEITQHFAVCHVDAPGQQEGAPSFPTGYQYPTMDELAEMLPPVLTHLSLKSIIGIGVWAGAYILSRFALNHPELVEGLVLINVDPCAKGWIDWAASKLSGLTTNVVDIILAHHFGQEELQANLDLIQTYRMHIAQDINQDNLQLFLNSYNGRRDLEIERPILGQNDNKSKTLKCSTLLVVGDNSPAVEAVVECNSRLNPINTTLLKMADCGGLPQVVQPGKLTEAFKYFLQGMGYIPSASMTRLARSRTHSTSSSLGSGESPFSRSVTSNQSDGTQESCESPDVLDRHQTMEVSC
T1 sequence (Q9UGV2 whole entry): as the sequence (Q9UGV2 whole entry G138W) above, with W138G counted along it
T2 sequence (Q9UGV2 whole entry): as the sequence (Q9UGV2 whole entry G138W) above, with W138G counted along it

`O=CC[C@@H](O)[C@H](O)[C@H](O)CO` [2-deoxyglucose]: the “expression of NDRG3 protein” value in assay [1] was “reduced”.

With `CC(=O)N(O)CCCCCNC(=O)CCC(=O)N(O)CCCCCNC(=O)CCC(=O)N(O)CCCCCN` [DFX, desferrioxamine], the “expression of NDRG3 protein” value in assay [2] and in assay [3] was “increasingly expressed” in each case.

Consider `CC(C)C[C@@H](C=O)NC(=O)[C@H](CC(C)C)NC(=O)[C@H](CC(C)C)NC(=O)OCc1ccccc1` [MG132] (Cbz-Leu-Leu-Leu-aldehyde), for which the “ubiquitination of NDRG3 protein” value in assay [4] is “actively ubiquitinated”.

Turning to `C[C@H](O)C(=O)O` [lactate, L-lactate], the “ubiquitination of recombinant NDRG3 protein by PHD2/VHL complex” value in [5] was “reduced”. The “in vitro binding of recombinant NDRG3 protein to lactate (14C values)” value in assay [6] is given as “increased”. Moreover, the “lactate-binding affinity of NDRG3 variant protein (14C values)” value in [7] is “reduced”.

Take `NC(=O)C(=O)[O-].[Na+]` [sodium oxamate]: the “angiogenesis (tube formation)” value is “increased again” in assay [8] and “inhibited” in assay [11]. Moreover, the entries for the “cell growth (MTT)” value (in the assay with Huh-1 cells; in assay [10]) were “inhibited in a concentration-dependent manner” and “increased”, respectively. The “accumulation of NDRG3 protein” value in [9] is “inhibited in proportion to the lactate expression”. In [12], the “accumulation of NDRG3 variant” value is reported as “lasted”. Moreover, the “accumulation of NDRG3” value in assay [13] is given as “inhibited”.
